Laboratory results published in US20190224343A1, “CLEAVABLE COATING MATERIAL HAVING MICROBIAL FUNCTIONALITY” (ORIGINAL G B.V., priority 2012, published 2019).

Tested on: Staphylococcus aureus (clinical isolate)
Assay: Fluorescence imaging of coated orthopaedic plates, screws and catheters implanted in a human cadaver ankle after incubation with S. aureus isolate or NaCl
Conditions: implants incubated with S. aureus, imaged 24 hours after implantation, excitation 710 nm, emission 800 nm
Excerpt: Orthopaedic plates, screws and catheters were coated with the polymer coating with compositions according to step (g). For example a polymer coating 1 g (i) was coated onto orthopaedic plates, screws and catheters in a continuous process.
First a solution of the polymer prepared in Example 1 g (i) was made by dissolving the polymer coating in water and then the plate and catheter were drawn through the solution of the polymer coating at a rate of 1 to 2 meters/second into an infrared dying oven of approximately 1 meter in length at about 100° C. The objects were completely covered indicating the application of a substantially uniform coating. This process was done according to the standard procedures in U.S. Pat. No. 7,442,205, Stents and methods for preparing stents from wires having hydrogel coating layers thereon. […]
Imaging of the objects implanted according to example 6 was performed 24 hours after implantation using an intra-operative clinical multispectral fluorescence camera (T3-imaging system, SurgOptix BV, Groningen, The Netherlands) and the IVIS Spectrum (excitation: 710 nm, emission: 800 nm, acquisition time 5 s, binning 4, F-stop 2, FOV 21.2).
The results obtained from the IVIS Spectrum and IVIS Lumina II were analyzed with Living Image 4.2. […] Signal intensity was determined by drawing regions of interests (ROI's) and measuring average counts in these regions. […]

CC1(C)C(=CC=C2CCCC(C=CC3=[N+](CCCCCC(=O)[O-])c4ccc(S(=O)(=O)[O-])cc4C3(C)C)=C2Oc2ccc(S(=O)(=O)[O-])cc2)N(CCCCS(=O)(=O)[O-])c2ccc(S(=O)(=O)[O-])cc21.[Na+].[Na+].[Na+].[Na+] [IRDye 800CW]
near infrared signal (net counts, background corrected): 1×10^5±4.2×10^4 counts
